Patent US20080293060A1, “Methods and Compositions for Identification of Hydrocarbon Response, Transport and Biosynthesis Genes” (priority 2007, published 2008)

System: ARE in Acinetobacter WH405
Type: cell-based, Acinetobacter strain WH405 (derivative of strain ADP1)
Settings: hydrocarbon at 5 and 50 mM, WH405 in LB, 37° C. overnight
Experimental: Acinetobacter strain WH405, an ARE::lacZ derivative of strain ADP1 (Ratajczak et al 1998), was scraped from an overnight plate into LB and diluted to OD600 0.07 (the cells can also be from an overnight culture, as long as cells are diluted in fresh LB). Alkane and alkene induction of the ARE was tested by adding a number of alkenes at 5 and 50 mM to culture tubes, followed by addition of the diluted WH405 solution into tubes (5 mL). Tubes were incubated in a 37° C. shaker overnight. The β-galactosidase activity assay developed by Miller was used to determine the level of induction by the different hydrocarbon from the overnight cultures.

Structure (SMILES)	induction of the ARE (β-galactosidase activity, Miller assay)
CCCCCCCCCCCCCCCC [hexadecane]	induced
C=CCCCCCCCCCCCCCCC [1-heptadecene]	induced
C=CCCCCCCCCCCCCCCCCC [1-nonadecene]	induced
C=CCCCCCCCCCCCCCCCC [1-octadecene]	induced
CCCCCCCCCC [decane]	induced
C=CCCCCCCCCCCCCCCCCCC [1-eicosene]	induced
CCCCCC [hexane]	not
CCCCCCCC/C=C\CCCCCCCCCCC [9-cis-heneicosene]	induced
CCCCCCCC [octane]	induces
CCCCCCCC/C=C\CCCCCCCCCCCCC [9-cis tricosene]	induced
C=CCCCCCCCCCCCCCC [1-hexadecene]	induced
